Measurements: article PMC13079396, “Use of a cytochrome P450 humanized mouse model to refine schistosomiasis drug discovery” (Proceedings of the National Academy of Sciences of the …, 2026)
Several values for one entry are separate records, joined by “and”; a condition that tells them apart may be missing. Equal entries are not always repeated. Where two headings read alike, the source gives them in different places.

What was measured:
[1] = type: in vitro ADME; settings: mouse, microsomes
[2] = type: in vitro ADME; settings: human, microsomes
Description: Supernatants were analysed by LC-MS/MS immediately. […] Chromatographic separation was achieved using a previously described method (2) with minor modifications. […] The flow rate was 1.2 mL/min. […] used. […] Intrinsic clearance determination […] Lower […]

[3] = system: S. mansoni; assay: PZQ-induced efficacy (worm and egg burden reduction) in S. mansoni infected WT mice; type: in vivo, Schistosoma mansoni
Description: (§1) Lower […] Analytical acceptance criteria were reported previously (1). […] Reactions were […]

[4] = system: S. mansoni; assay: PZQ-induced efficacy (worm and egg burden reduction) in S. mansoni infected 8HUM mice; type: in vivo, Schistosoma mansoni; settings: for worm burden reduction: day 47
Description: as §1

[5] = system: S. mansoni; settings: cited from earlier work
[6] = Range-finding PK study, uninfected 8HUM mice, oral rac-PZQ; type: in vivo, mouse; settings: for AUC(0-t) / Cmax: female, mouse, whole blood, uninfected 8HUM mice, single oral 25 mg/kg rac-PZQ, total blood, n = 2
Description: Dose formulations were prepared on the day of dosing. […] Supernatants were analysed by LC-MS/MS immediately. […] Chromatographic separation was […] […] […] used. […] Intrinsic clearance determination […] […] Lower […] […] Analytical acceptance criteria were reported previously (1).

[7] = PK in S. mansoni infected WT mice, oral rac-PZQ; type: in vivo; settings: female, mouse, whole blood, single oral 400 mg/kg rac-PZQ at 41 d postinfection, total blood, n = 3
[8] = PK in S. mansoni infected 8HUM mice, oral rac-PZQ; type: in vivo; settings: female, mouse, whole blood, total blood, n = 3
[9] = Range-finding PK study, uninfected WT mice, oral rac-PZQ; settings: female, WT (wild-type), mouse, whole blood, 400 mg/kg
[10] = single oral 400 mg/kg, day 47, 400 mg/kg

Row | SMILES | AUC(0-t) [6] [ng·h/mL] | Cmax [6] [ng/mL] | AUC(0-t) [7] [ng·h/mL] | Cmax [7] [ng/mL] | AUC(0-t) ([8]; single oral 100 mg/kg rac-PZQ) [ng·h/mL] | Cmax ([8]; single oral 100 mg/kg rac-PZQ) [ng/mL] | AUC(0-t) ([8]; single oral 200 mg/kg rac-PZQ) [ng·h/mL] | Cmax ([8]; single oral 200 mg/kg rac-PZQ) [ng/mL] | AUC(0-t) [9] [ng·h/mL] | Cmax [9] [ng/mL] | also measured
1 | O=C(C1CCCCC1)N1CC(=O)N2CCc3ccccc3C2C1 (racemic) [rac-PZQ, praziquantel] |  |  |  |  |  |  |  |  |  |  | Microsomal CLint [1]: 2.7 mL/min/g; Microsomal CLint [2]: 3.2 mL/min/g; reduction in adult worm burdens ([3]; single oral 400 mg/kg at 41 d postinfection, day 47, vs excipient controls): 93%; worm burden reduction, females [3, 10]: 95%; worm burden reduction, males [3, 10]: 90%; worm burden reduction ([4]; 8HUM mice, single oral 100 mg/kg, 100 mg/kg): 92%; worm burden reduction ([4]; 8HUM mice, single oral 100 mg/kg, listed as PZQ, 100 mg/kg): > 90%; worm burden reduction ([4]; 8HUM mice, single oral 200 mg/kg): 98%; reductions in worm burdens ([4]; 8HUM mice, single oral doses of 100 to 200 mg/kg bodyweight): > 90%; increase in efficacy in 8HUM mice vs WT mice at the same dose ([4]; single 100 mg/kg oral dose, 8HUM (this study) vs WT (ref 7)): approximately twofold; drug-induced efficacy (worm burden reduction) ([5]; WT animals, single oral dose of 400 mg/kg rac-PZQ, 400 mg/kg): ~ 94% and > 90%; reduction in worm burden ([5]; WT mice, single 100 mg/kg bodyweight oral dose, at most): ≤ 53%
2 | O=C(C1CCC(O)CC1)N1CC(=O)N2CCc3ccccc3C2C1 (stereo not drawn) [4OH-PZQ] | 19400 | 5360 | 197000 | 42600 | 108000 | 21700 | 19400 | 5360 | 98500 | 27600 | AUClast and Cmax in 8HUM animals, fold lower compared to WT animals ([6]; 8HUM 25 mg/kg vs WT 400 mg/kg rac-PZQ, oral, uninfected): ~ fivefold
3 | O=C(C1CCCCC1)N1CC(=O)N2CCc3ccccc3[C@@H]2C1 [R-PZQ] | 2860 | 2210 | 73600 | 25800 | 25700 | 13200 | 68300 | 20800 | 12000 | 7740 | 
